Measured values published in ChEMBL document CHEMBL2021890, “A new class of prolylcarboxypeptidase inhibitors, part 1: discovery and evaluation” (Bioorg Med Chem Lett, 2012).

How the values were obtained:
[1] = molecular target: Mus musculus; assay: Ex-vivo inhibition of po dosed mouse PrCP in the absence of plasma by FRET analysis; type: functional, organism-based
[2] = molecular target: Mus musculus; assay: Ex-vivo inhibition of PrCP in heat inactivated 25% plasma of po dosed mouse by FRET analysis; type: functional, organism-based
[3] = molecular target: Mus musculus; assay: Ex-vivo inhibition of PrCP in heat inactivated 100% plasma of po dosed mouse by FRET analysis; type: functional, organism-based
[4] = tested on: Mus musculus; assay: Plasma shift, ratio of Ki for PrCP in heat inactivated 100% plasma of po dosed mouse to Ki for po dosed mouse PrCP in the absence of plasma; type: functional
[5] = Drug uptake in C57 mouse plasma at 100 mg/kg, po after 20 hrs by LC/MS analysis; type: ADME, organism-based; design: dose 100 mg/kg, route oral
[6] = Drug uptake in C57 mouse brain at 100 mg/kg, po after 20 hrs by LC/MS analysis; type: ADME, organism-based; design: dose 100 mg/kg, route oral; settings: read-out: Drug uptake
[7] = Ratio of drug level in brain to plasma in C57 mouse at 100 mg/kg, po after 20 hrs by LC/MS analysis; type: ADME, organism-based; design: dose 100 mg/kg, route oral; settings: read-out: BPR
[8] = tested on: Mus musculus; assay: Ex-vivo inhibition of PrCP in heat inactivated 100% plasma of C57 mouse assessed as target engagement at 100 mg/kg, po after 20 hrs by FRET analysis; type: functional
[9] = tested on: Mus musculus; assay: Ex-vivo inhibition of PrCP in heat inactivated 100% plasma of C57 mouse assessed as target engagement at 100 mg/kg, po after 20 hrs calculated as [cmpd]plasma/([cmpd]plasma + Ki (heat inactivated plasma))x100; type: functional
[10] = Apparent permeability across pig LLC-PK1 cells at 5 uM; type: ADME, cell-based, Sus scrofa
[11] = Ratio of apparent permeability from basolateral to apical side over apical to basolateral side in […] LLC cells expressing human MDR1 at 5 uM; type: ADME, cell-based
[12] = Ratio of apparent permeability from basolateral to apical side over apical to basolateral side in […] LLC cells expressing […] MDR1a at 5 uM; type: ADME, cell-based
[13] = molecular target: T1, Lysosomal Pro-X carboxypeptidase (Mus musculus, UniProt Q7TMR0); assay: Inhibition of mouse PrCP
T1 sequence (Q7TMR0 whole entry): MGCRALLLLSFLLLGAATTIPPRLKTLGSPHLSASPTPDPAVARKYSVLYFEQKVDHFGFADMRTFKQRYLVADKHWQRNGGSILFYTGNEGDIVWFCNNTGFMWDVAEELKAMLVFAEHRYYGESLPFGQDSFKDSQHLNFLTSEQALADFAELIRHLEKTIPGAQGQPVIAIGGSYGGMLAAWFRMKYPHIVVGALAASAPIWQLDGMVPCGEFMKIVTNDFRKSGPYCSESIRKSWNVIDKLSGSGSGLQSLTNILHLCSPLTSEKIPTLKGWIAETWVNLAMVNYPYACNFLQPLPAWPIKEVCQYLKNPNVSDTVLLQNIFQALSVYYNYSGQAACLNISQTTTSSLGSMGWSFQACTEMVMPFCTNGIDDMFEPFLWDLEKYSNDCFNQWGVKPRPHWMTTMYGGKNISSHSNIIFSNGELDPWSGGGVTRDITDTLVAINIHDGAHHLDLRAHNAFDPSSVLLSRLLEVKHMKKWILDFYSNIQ

[14] = Plasma protein binding in 10% human plasma assessed as percentage unbound; type: ADME, cell-free
[15] = Plasma protein binding in 10% mouse plasma assessed as percentage unbound; type: ADME, cell-free
[16] = Metabolic stability in human liver microsomes after 30 mins by LC/MS analysis; type: ADME, Microsome; settings: read-out: Stability
[17] = Metabolic stability in mouse liver microsomes after 30 mins by LC/MS analysis; type: ADME, Microsome; settings: read-out: Stability
[18] = Clearance in mouse at 0.5 mg/kg, iv and 1 mg/kg, po; type: ADME, organism-based; settings: in vivo
[19] = Volume of distribution in mouse at 0.5 mg/kg, iv and 1 mg/kg, po; type: ADME, organism-based; settings: in vivo
[20] = Half life in mouse at 0.5 mg/kg, iv and 1 mg/kg, po; type: ADME, organism-based; settings: in vivo
[21] = tested on: Mus musculus; assay: Dose normalized AUC in mouse at 1 mg/kg, po; type: ADME, organism-based; design: dose 1 mg/kg, route oral; settings: in vivo
[22] = Oral bioavailability in mouse at 1 mg/kg; type: ADME, organism-based; settings: in vivo
[23] = Drug uptake in C57 mouse plasma at 10 mg/kg, po after 20 hrs by LC/MS analysis; type: ADME, organism-based; design: dose 10 mg/kg, route oral
[24] = Drug uptake in C57 mouse brain at 10 mg/kg, po after 20 hrs by LC/MS analysis; type: ADME, organism-based; design: dose 10 mg/kg, route oral; settings: read-out: Drug uptake
[25] = Ratio of drug level in brain to plasma in C57 mouse at 10 mg/kg, po after 20 hrs by LC/MS analysis; type: ADME, organism-based; design: dose 10 mg/kg, route oral; settings: read-out: BPR
[26] = tested on: Mus musculus; assay: Ex-vivo inhibition of PrCP in heat inactivated 100% plasma of C57 mouse assessed as target engagement at 10 mg/kg, po after 20 hrs by FRET analysis; type: functional
[27] = tested on: Mus musculus; assay: Ex-vivo inhibition of PrCP in heat inactivated 100% plasma of C57 mouse assessed as target engagement at 10 mg/kg, po after 20 hrs calculated as [cmpd]plasma/([cmpd]plasma + Ki (heat inactivated plasma))x100; type: functional
[28] = Apparent permeability across pig LLC-PK1 cells at 1 uM; type: ADME, cell-based, Sus scrofa

Compound: C[C@@H](c1ccc(-c2ccccc2)cc1)[C@H](NC(=O)C(C)(C)N)C(=O)N1CCC[C@H]1c1nc2cc(Cl)c(Cl)cc2[nH]1
- Ki [1]: 0.7 nM
- Ki [2]: 4.6 nM
- Ki [3]: 16.3 nM
- Ratio Ki [4]: 23.3
- concentration at 20 h [5]: 3120 nM
- concentration at 20 h [6]: 757 nM
- Kp at 20 h [7]: 0.24
- inhibition in vivo at 100 mg/kg [8]: 97.2%
- inhibition in vivo at 100 mg/kg [9]: 99.5%
- Papp at 5 µM [10]: 2.3 ×10⁻⁶ cm/s
- Ratio [11]: 8
- Ratio [12]: 4.2

Compound: CC(C)(C)N1C[C@@H](C(=O)N2CCC(c3ccnn3-c3ccc(F)c(Cl)c3)CC2)[C@H](c2ccc(F)cc2F)C1
- IC50 [13]: 0.3 nM
- fraction unbound [14]: 0.18
- fraction unbound [15]: 0.16
- remaining at 0.5 h [16]: 4%
- remaining at 0.5 h [17]: 3%
- clearance [18]: 121 mL/min/kg
- Vd [19]: 22 L/kg
- half-life [20]: 3.1 h
- AUC/dose [21]: 0.05 µM·kg·h/mg
- bioavailability [22]: 18%
- Ki [1]: 0.5 nM
- Ki [2]: 0.7 nM
- Ki [3]: 1.4 nM
- concentration at 20 h [5]: 1800 nM
- concentration at 20 h [23]: 196 nM
- concentration at 20 h [6]: 801 nM
- concentration at 20 h [24]: 21 nM
- Kp at 20 h [7]: 0.46
- Kp at 20 h [25]: 0.11
- inhibition in vivo at 100 mg/kg [8]: 99.9%
- inhibition in vivo at 10 mg/kg [26]: 99.5%
- inhibition in vivo at 100 mg/kg [9]: 99.9%
- inhibition in vivo at 10 mg/kg [27]: 99.3%
- Papp at 1 µM [28]: 28.8 ×10⁻⁶ cm/s
